This note sets out measurements from ChEMBL document CHEMBL1123151, “Carbocyclic analogues of 5'-amino-5'-deoxy- and 3'-amino-3'-deoxythymidines” (1986).

One experiment concerns HEp-2. In words: Compound was tested for inhibition against replication of type 1 herpes simplex virus (HSV-1,strain HF) in human epidermoid carcinoma cells. The format is functional.
For experiment [1], the system named is L929. Briefly: Compound was tested for inhibition against replication of type 1 herpes simplex virus (HSV-1,strain 377) in L929 cells; Experiment 1. The format is functional, Mus musculus.
For experiment [2], the system named is L929. In words: Compound was tested for inhibition against replication of type 1 herpes simplex virus (HSV-1,strain 377) in L929 cells; Experiment 2. The format is functional, Mus musculus.
Experiment [3] deals with L929. Briefly: Compound was tested for inhibition against replication of type 1 herpes simplex virus (HSV-2,strain MS) in L929 cells. The format is functional, Mus musculus.
In experiment [4] the test system is Vero. In words: Compound was tested for inhibition against replication of type 1 herpes simplex virus (HSV-1,strain 377) in vero cells; Experiment 3. The format is functional, Chlorocebus sabaeus.
For experiment [5], the system named is Vero. Briefly: Compound was tested for inhibition against replication of type 1 herpes simplex virus (HSV-1,strain 377) in vero cells; Experiment 4. The format is functional, Chlorocebus sabaeus.
The nature of experiment [6]: Ratio of the virus rating of the thymidine analogue to the virus rating of ara-A; Experiment 1. The format is functional.
Experiment [7] in a line: Ratio of the virus rating of the thymidine analogue to the virus rating of ara-A; Experiment 2. The format is functional.
Experiment [8] has as its system L929. Briefly: Compound was tested for inhibition against replication of type 1 herpes simplex virus (HSV-1,strain 377) in L929 cells. The format is functional, Mus musculus.
Experiment [9] concerns Vero. Briefly: Compound was tested for inhibition against replication of type 1 herpes simplex virus (HSV-1,strain 377) in vero cells; Experiment 2. The format is functional, Chlorocebus sabaeus.
Experiment [10] in a line: Ratio of the virus rating of the thymidine analogue to the virus rating of ara-A in vero cells; Experiment 2. The format is functional.
Experiment [11] can be described thus: Ratio of the virus rating of the thymidine analogue to the virus rating of ara-A in vero cells; Experiment 3. The format is functional.
Experiment [12] in a line: Ratio of the virus rating of the thymidine analogue to the virus rating of ara-A in vero cells; Experiment 4. The format is functional.
In experiment [13] the test system is Vero. Briefly: Compound was tested for inhibition against replication of type 1 herpes simplex virus (HSV-1, strain 377) in vero cells; Experiment 2. The format is functional, Chlorocebus sabaeus.
The test system of experiment [14] is Vero. In words: Compound was tested for inhibition against replication of type 1 herpes simplex virus (HSV-1, strain 377) in vero cells; Experiment 5. The format is functional, Chlorocebus sabaeus.
Experiment [15] deals with L929. In words: Compound was tested for inhibition against replication of type 1 herpes simplex virus (HSV-1,strain 377) L929 cells. The format is functional, Mus musculus.
Experiment [16] in a line: Ratio of the virus rating of the thymidine analogue to the virus rating of ara-A. The format is functional.
The subject of experiment [17] is Vero. In words: Compound was tested for inhibition against replication of type 1 herpes simplex virus (HSV-1,strain 377) in vero cells. The format is functional, Chlorocebus sabaeus.

With `Cc1cn(C2CC(O)C(CN)C2)c(=O)[nH]c1=O` (stereo not given), the VR stood at 0.2 in the experiment with HEp-2; 3 with L929 [1]; 1.8 with L929 [2]; 0.5 with L929 [3]; 0 in the experiment with Vero [4]; 0 in the experiment with Vero [5]. The Ratio in [6] was found to be 1; in experiment [7] it was 1.28.

Take `Cc1cn([C@@H]2C[C@H](CO)[C@H](N=[N+]=[N-])C2)c(=O)[nH]c1=O`: the VR in the experiment with L929 [8] came out at 0.2; in the experiment with L929 [2] it was 0; in the experiment with L929 [3], 0; in the experiment with Vero [9], 0.6; in the experiment on Vero [4], 1; with Vero [5] it was 0.8. For the same compound, the values for the Ratio in [10], in experiment [11] and in [12] were 0.43, 0.5 and 0.44, respectively.

On to `Cc1cn([C@@H]2C[C@H](CO)[C@H](N)C2)c(=O)[nH]c1=O`, for which the VR is on record as 0.9 with L929 [2], 0 in the experiment on Vero [13] and 0 with Vero [14]. The Ratio in experiment [7] was 0.9.

With `Cc1cn([C@@H]2C[C@H](CO)[C@@H](N)C2)c(=O)[nH]c1=O`, the VR came out at 0.4 with L929 [15], 0 in the experiment on Vero [9] and 0.4 with Vero [5]. Further, in [16], the Ratio is given as 0.

The compound `Cc1cn([C@@H]2C[C@H](CO)[C@@H](N=[N+]=[N-])C2)c(=O)[nH]c1=O` gave a VR with Vero [17] of 0.

For the compound `Cc1cn(C2CC(O)C(CN=[N+]=[N-])C2)c(=O)[nH]c1=O` (stereo not given), the VR was 0 in the experiment on HEp-2, 0.8 in the experiment on L929 [8] and 0 in the experiment with L929 [3]. Further, in experiment [16], the Ratio came out at 0.27.
